Experiment [1] addresses T1, 5 HT2C receptor (Homo sapiens, UniProt P28335).
T1 sequence (P28335 33-458): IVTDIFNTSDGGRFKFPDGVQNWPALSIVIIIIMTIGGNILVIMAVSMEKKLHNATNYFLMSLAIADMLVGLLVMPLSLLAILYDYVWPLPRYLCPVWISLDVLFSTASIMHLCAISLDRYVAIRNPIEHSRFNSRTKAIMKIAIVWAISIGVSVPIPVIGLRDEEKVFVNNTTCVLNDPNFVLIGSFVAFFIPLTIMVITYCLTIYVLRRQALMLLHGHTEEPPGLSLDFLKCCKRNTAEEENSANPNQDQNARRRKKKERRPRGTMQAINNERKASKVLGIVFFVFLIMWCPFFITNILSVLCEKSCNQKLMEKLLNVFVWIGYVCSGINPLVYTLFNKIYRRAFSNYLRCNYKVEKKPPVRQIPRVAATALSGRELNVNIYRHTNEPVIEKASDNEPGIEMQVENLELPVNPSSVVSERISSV
Put plainly: affinity to the 5 HT2C receptor. The experiment is classed as binding.

Experiment [2] addresses 5-HT2A receptors (UniProt P14842). As to the kind of experiment: in-vitro affinity to 5-HT2A receptors, [3H]ketanserine displacement (Example A1). The experiment is classed as binding. From the text: The 5-HT2A receptors are exposed both to [^3H]ketanserine (a substance known for its affinity to the receptor) and also to the test compound. The decrease in the affinity of [^3H]ketanserine to the receptor is an indication of the affinity of the test substance to the 5-HT2A receptor.

One may read the IC50 as the concentration at which inhibition is half-maximal. Low readings indicate higher potency, high ones lower potency. In the case of `COc1ccc(-c2ccc(-n3ncc(CCN4CCC(O)C4)c3-c3ccco3)cc2)cc1` (centres unmarked) [Example 571, 1-{2-[5-Furan-2-yl-1-(4′-methoxybiphenyl-4-yl)-1H-pyrazol-4-yl]ethyl}pyrrolidin-3-ol], the results for the IC50 in experiment [1] and in experiment [2] were 800 nM and 12 nM, respectively.
The matching figures for `COc1cccc(-c2c(CN(C)C)cnn2-c2ccc(-c3ccc(F)cc3)cc2)c1` [Example 592, [1-(4′-Fluorobiphenyl-4-yl)-5-(3-methoxyphenyl)-1H-pyrazol-4-ylmethyl]dimethylamine]: 510 nM and 20 nM.
`CCN1CCN(Cc2cnn(-c3ccc(-c4ccc(F)cc4)cc3)c2-c2ccco2)CC1` [Example 539, 1-Ethyl-4-[1-(4′-fluorobiphenyl-4-yl)-5-furan-2-yl-1H-pyrazol-4-ylmethyl]piperazine]: the IC50 turned out to be 310 nM in experiment [1] and 3.6 nM in experiment [2].
`CN1CCN(Cc2cnn(-c3ccc(-c4ccc(Oc5ccccc5)cc4)cc3)c2-c2ccccc2F)CC1` [Example 634, 1-[5-(2-Fluorophenyl)-1-(4′-phenoxybiphenyl-4-yl)-1H-pyrazol-4-ylmethyl]-4-methylpiperazine]: the figures for the IC50 in experiment [1] and in experiment [2] were 970 nM and 41 nM, respectively.
On the same counts, the results for `CCN1CCN(Cc2cnn(-c3ccc(-c4ccc(F)cc4)cc3)c2-c2occc2C)CC1` [Example 536, 1-Ethyl-4-[1-(4′-fluorobiphenyl-4-yl)-5-(3-methyl-2-furanyl)-1H-pyrazol-4-ytmethyl]piperazine] are 1000 nM and 3 nM.
On to `CN1CCN(Cc2cnn(-c3ccc(-c4ccncc4)cc3)c2-c2ccccc2F)CC1` [Example 661, 1-[5-(2-Fluorophenyl)-1-(4-pyridin-4-ylphenyl)-1H-pyrazol-4-ylmethyl]-4-methylpiperazine], for which the IC50 is 1000 nM in experiment [1] and 77 nM in experiment [2].
Regarding `CN(C)Cc1cnn(-c2ccc(-c3cccc(F)c3)cc2)c1-c1ccco1` [Example 538, [1-(3′-Fluorobiphenyl-4-yl)-5-furan-2-yl-1H-pyrazol-4-ylmethyl]dimethylamine], the IC50 in experiment [1] is 170 nM; in experiment [2], 3.4 nM.
On the same counts, the results for `CN1CCN(Cc2cnn(-c3ccc(-c4ccsc4)cc3)c2-c2ccccc2)CC1` [Example 610, 1-Methyl-4-[5-phenyl-1-(4-thiophen-3-ylphenyl)-1H-pyrazol-4-ylmethyl]piperazine] are 490 nM and 31 nM.
On to `COc1ccc(-c2ccc(-n3ncc(CN4CCN(C)CC4)c3-c3ccccc3F)cc2)cc1OC` [Example 644, 1-[1-(3′,4′-Dimethoxybiphenyl-4-yl)-5-(2-fluorophenyl)-1H-pyrazol-4-ylmethyl]-4-methylpiperazine], for which the IC50 in experiment [1] was determined as 1000 nM; in experiment [2], 49 nM.
`CCN(CC)Cc1cnn(-c2ccc(-c3ccc4c(c3)OCCO4)cc2)c1-c1ccco1` [Example 630, {1-[4-(2,3-Dihydrobenzo-1,4-dioxin-6-yl)phenyl]-5-furan-2-yl-1H-pyrazol-4-ylmethyl}diethylamine]: the results for the IC50 in experiment [1] and in experiment [2] were 900 nM and 38 nM, respectively.
With `CN1CCN(Cc2cnn(-c3ccc(-c4ccc(F)cc4)cc3)c2-c2ccoc2)CC1` [Example 586, 1-[1-(4′-Fluorobiphenyl-4-yl)-5-furan-3-yl-1H-pyrazol-4-ylmethyl]-4-methylpiperazine], the IC50 in experiment [1] was found to be 1000 nM; in experiment [2], 19 nM.
On the same counts, the results for `CC(C)N1CCN(Cc2cnn(-c3ccc(-c4ccc(F)cc4)cc3)c2-c2ccco2)CC1` [Example 558, 1-[1-(4′-Fluorobiphenyl-4-yl)-5-furan-2-yl-1H-pyrazol-4-ylmethyl]-4-isopropylpiperazine] are 370 nM and 8.2 nM.
On the same counts, the results for `CN1CCN(Cc2cnn(-c3ccc(-c4ccc(N(C)C)cc4)cc3)c2-c2ccccc2F)CC1` [Example 626, {4′-[5-(2-Fluorophenyl)-4-(4-methylpiperazin-1-ylmethyl)pyrazol-1-yl]biphenyl-4-yl}dimethylamine] are 1000 nM and 36 nM.
The matching figures for `CN(C)CCN(C)Cc1cnn(-c2ccc(-c3ccc(F)cc3)cc2)c1-c1ccco1` [Example 635, N-[1-(4′-Fluorobiphenyl-4-yl)-5-furan-2-yl-1H-pyrazol-4-ylmethyl]-N,N′,N′-trimethylethane-1,2-diamine]: 1000 nM and 41 nM.
For the molecule `OC1CCN(Cc2cnn(-c3ccc(-c4ccc(F)cc4)cn3)c2-c2ccco2)C1` (centres unmarked) [Example 614, 1-{1-[5-(4-Fluorophenyl)pyridin-2-yl]-5-furan-2-yl-1H-pyrazol-4-ylmethyl}pyrrolidin-3-ol], the IC50 came out at 1000 nM in experiment [1] and 32 nM in experiment [2].
On the same counts, the results for `CCN1CCN(Cc2cnn(-c3ccc(-c4ccc(OC)cc4)cc3)c2-c2ccco2)CC1` [Example 551, 1-Ethyl-4-[5-furan-2-yl-1-(4′-methoxybiphenyl-4-yl)-1H-pyrazol-4-ylmethyl]piperazine] are 495 nM and 6.1 nM.
The matching figures for `CN(C)CCN(C)Cc1cnn(-c2ccc(-c3ccc(F)cc3)cc2)c1-c1cccc(Cl)c1` [Example 639, N-[5-(3-Chlorophenyl)-1-(4′-fluorobiphenyl-4-yl)-1H-pyrazol-4-ylmethyl]-N,N′,N′-trimethylethane-1,2-diamine]: 1000 nM and 43 nM.
On the same counts, the results for `OC1CCN(Cc2cnn(-c3ccc(-c4ccc5c(c4)OCCO5)cc3)c2-c2ccco2)C1` (centres unmarked) [Example 544, 1-{1-[4-(2,3-Dihydrobenzo-1,4-dioxin-6-yl)phenyl]-5-furan-2-yl-1H-pyrazol-4-ylmethyl}pyrrolidin-3-ol] are 470 nM and 4.3 nM.
In the case of `COc1ccc(-c2ccc(-n3ncc(CN4CCC(O)C4)c3-c3ccco3)cc2)cc1` (centres unmarked) [Example 564, 1-[5-Furan-2-yl-1-(4′-methoxybiphenyl-4-yl)-1H-pyrazol-4-ylmethyl]pyrrolidin-3-ol], the IC50 in experiment [1] worked out at 630 nM; in experiment [2] it was 10 nM.
On the same counts, the results for `Cc1ccoc1-c1c(CN2CCC(O)C2)cnn1-c1ccc(-c2ccc(F)cc2)cc1` (centres unmarked) [Example 596, 1-[1-(4′-Fluorobiphenyl-4-yl)-5-(3-methyl-2-furanyl)-1H-pyrazol-4-ylmethyl]pyrrolidin-3-ol] are 1000 nM and 22 nM.
The matching figures for `Fc1ccccc1-c1c(CN2CCNCC2)cnn1-c1ccc(C(F)(F)F)cn1` [Example 588, 1-[5-(2-Fluorophenyl)-1-(5-trifluoromethylpyridin-2-yl)-1H-pyrazol-4-ylmethyl]piperazine]: 1000 nM and 20 nM.
In the case of `Cc1ccc(-c2ccc(-n3ncc(CN4CCN(C)CC4)c3-c3ccccc3F)cc2)cc1F` [Example 625, 1-[1-(3′-Fluoro-4′-methylbiphenyl-4-yl)-5-(2-fluorophenyl)-1H-pyrazol-4-ylmethyl]-4-methylpiperazine], the IC50 in experiment [1] was found to be 620 nM; in experiment [2], 36 nM.
In the case of `OC1CCN(Cc2cnn(-c3ccc(-c4ccc5c(c4)OCO5)cc3)c2-c2ccco2)C1` (centres unmarked) [Example 548, 1-[1-(4-Benzo-1,3-dioxol-5-ylphenyl)-5-furan-2-yl-1H-pyrazol-4-ylmethyl]pyrrolidin-3-ol], the IC50 in experiment [1] is 410 nM; in experiment [2] it was 5.1 nM.
On the same counts, the results for `COc1ccc(-c2ccc(-n3ncc(CN4CCN(C5CCCC5)CC4)c3-c3ccco3)cc2)cc1` [Example 552, 1-Cyclopentyl-4-[5-furan-2-yl-1-(4′-methoxybiphenyl-4-yl)-1H-pyrazol-4-ylmethyl]piperazine] are 2950 nM and 6.1 nM.
Regarding `CN1CCN(Cc2cnn(-c3ccc(-c4ccc5c(c4)OCO5)cc3)c2-c2ccccc2F)CC1` [Example 563, 1-[1-(4-Benzo-1,3-dioxol-5-ylphenyl)-5-(2-fluorophenyl)-1H-pyrazol-4-ylmethyl]-4-methylpiperazine], the figures for the IC50 in experiment [1] and in experiment [2] were 510 nM and 10 nM, respectively.

The record behind these values is US7842695B2, “Substituted pyrazole compounds” (Merck Patent GmbH, priority 2003, dated 2010).
